For one test, the system named is BeWo cells. The test can be described thus: Expression of trophoblast stemness and differentiation genes in BeWo cells treated with EGF and chemical inhibitors. The class given is cell-based, human. As to conditions: 1 mM VPA with 20 μM MG132, 8 h (FIG. 6G). As for the experimental part: FIGS. 6A to 6I show the regulation of trophoblast stemness and differentiation by antagonism between ΔNp63α and GCM1. […] ITGA6-positive term CTBs were cultured in complete TS medium for 5 days and then maintained in the same medium or incomplete medium (vehicle alone without EGF and chemical inhibitors) for an additional 7 days. Cells were subjected to immunofluorescence microscopy of ΔNp63α, GCM1, and hCGβ. […] BeWo cells were incubated in complete or incomplete TS medium supplemented with the indicated growth factor or chemical inhibitor(s) for 24 h. Cells were harvested for quantitative RT-PCR analysis of the indicated stemness or differentiation genes. […] BeWo cells were treated with the indicated concentration of VPA for 24 hours and then harvested for immunoblotting and quantitative RT-PCR analyses of GCM1, ΔNp63α, and hCGβ. […] BeWo cells were transfected with 4XCSL-luciferase in the presence or absence of 2 mM VPA for 48 hours, followed by luciferase assays. […] 293T cells were transfected with pHA-GCM1 and pNotch1IC-FLAG for 48 hours, followed by coimmunoprecipitation analysis and confocal microscopy using FLAG and HA mAbs and GCM1 Ab. […] EGFP-positive mock or Notch1IC-FLAG-expressing BeWo cells were treated with or without 50 μM FSK for 24 h, followed by immunoblotting and quantitative RT-PCR analyses of GCM1, hCGβ or HTRA4. […] BeWo cells were treated with or without 1 mM VPA in the presence or absence of 20 μM MG132 for 8 h and then subjected to immunoblotting analysis of GCM1 and Notch1IC. […] The EGFP-positive mock or Notch1IC-FLAG-expressing BeWo cells were transfected with the GCM1 promoter reporter plasmid E1bLUCGCM1-2K for 48 h and then subjected to luciferase assays. […] BeWo cells and ITGA6-positive term CTBs were cultured under normoxic or hypoxic conditions for 72 h and 7 days, respectively. Cells were then harvested for quantitative RT-PCR analysis of GCM1, ΔNp63α, HTRA4, hCGβ, and MKI67. Means and standard deviations obtained from three independent experiments are presented.
To study the effect of EGF and chemical inhibitors on trophoblast differentiation, BeWo cells were cultured in the complete TS medium or in the incomplete TS medium with EGF alone or the indicated chemical inhibitor(s) for 24 h. Cells were then harvested for quantitative RT-PCR or immunoblotting analysis of expression of ΔNp63α, eomesodermin (EOMES), E74-like factor 5 (ELF5) or GCM1 and its target genes.

Another test concerns ΔNp63α. Nature of the test: ΔNp63α stability in JEG3 cells (FSK with or without MG132). The class given is cell-based, human. The settings on record: 50 μM FSK 24 h in presence of MG132 (FIG. 3F). As for the experimental part:
FIGS. 3A to 3I show reciprocal regulation of GCM1 and ΔNp63α activities in trophoblast differentiation. […] Scramble control, ΔNp63α-knockdown or GCM1-knockdown JEG3 cells were treated with or without 50 μM FSK for 24 h and then harvested for immunoblotting and quantitative RT-PCR analyses of SYN1, hCGβ, HTRA4 proteins or transcripts. Arrowhead denotes a non-specific band recognized by ΔNp63α Ab. […] Scramble control and ΔNp63α knockdown JEG3 cells were treated with or without 50 μM FSK for 48 h, followed by immunofluorescence microscopy with E-cadherin Ab. Syncytial margins are marked with stippled line. Cell fusion was quantified by fusion index. […] Mock and ΔNp63α-FLAG-expressing BeWo cells or scramble control and ΔNp63α-knockdown JEG3 cells were subjected to immunoblotting and quantitative RT-PCR analyses of RACK1 and GATA3 proteins or transcripts. […] Scramble control or ΔNp63α-knockdown JEG3 cells were transfected with pHTRA4-1 Kb with or without pGATA3-FLAG for 48 h, followed by luciferase assays. […] WT and GCM1-KO JEG3 cells were treated with or without 50 μM FSK for 24 hours and then harvested for immunoblotting and quantitative RT-PCR analyses of GCM1, ΔNp63α, hCGβ proteins and transcripts. […] Quantitation of band intensity was performed by densitometry analysis, and the relative ΔNp63α protein level was normalized by β-actin. […]

Residues, ends and D or L forms follow the SMILES beside them. *: point of attachment. Cbz = O=C(OCc1ccccc1)*

Data on one compound can be found in patent US20220155314A1, “TROPHOBLAST STEM CELL, METHODS OF PREPARATION AND USES THEREOF” (Academia Sinica, priority 2020, published 2022).

On to `CC(C)C[C@@H](C=O)NC(=O)[C@H](CC(C)C)NC(=O)[C@H](CC(C)C)NC(=O)OCc1ccccc1` [MG132] (Cbz-Leu-Leu-Leu-aldehyde), for which the “VPA-mediated downregulation of GCM1 expression” value in the test on BeWo cells is “compromised”. For the same compound, the “suppressive effect of FSK on ΔNp63α expression” value with ΔNp63α was “counteracted”.
